Measured values: patent publication US20260091103A1, “NOVEL COMPOSITIONS COMPRISING TERPENOID AND MACROMOLECULE, AND USES THEREOF” (Powin Biomedical Co., Ltd., priority 2022, published 2026)
“Also recorded” adds a separate entry of the source.

Tests used:
[1] = system: macrophages (CD11b+); assay: Antigen-presenting cell recruitment in injected quadriceps muscle: macrophages (flow cytometry); assay type: in vivo, BALB/c mice; details: 50 μL i.m. into right quadriceps, versus vehicle-injected left quadriceps
Method: (§1) 15 BALB/c mice were randomly assigned into 5 groups (three mice per group), which were Paraffin oil@HACH group, Squalane@HACH group, Squalene@HACH group, Ocimene@HACH group, and Farnesene@HACH group.
(§2) 50 μL of the composition comprising Paraffin oil@HACH particles, composition comprising Squalane@HACH particles, composition comprising Squalene@HACH particles, composition comprising Ocimene@HACH particles, or composition comprising Farnesene@HACH particles (the test samples in this experiment) was injected intramuscularly into the right quadriceps of mice in the Paraffin oil@HACH group, Squalane@HACH group, Squalene@HACH group, Ocimene@HACH group, and Farnesene@HACH group, respectively; and 50 μL of sodium citrate buffer (pH=6.5) (the vehicle control in this experiment) was injected intramuscularly into the left quadriceps of mice in these groups to monitor the effect induced by the injection on each mouse.
(§3) The mice in each group were sacrificed at 5th day after injection.
(§4) The left quadriceps muscles and the right quadriceps muscles of each mouse were harvested respectively. The tendons were removed, and muscles were digested with 3 mL of phosphate buffered saline (PBS) containing 0.05% (w/v) type II collagenase, 10 μg/mL of DNase I, and 0.5% BSA at 37° C. for 40 min. The muscle digestion was quenched by the addition of excess medium; and then the cell suspension was collected by centrifugation at 1200 rpm for 5 min, resuspended in PBS, and filtered through a 70-μm nylon mesh (BD-Biosciences).
The degree of macrophage cell (CD11b^+) recruitment in each mouse was assessed according to the following formula (VII): […]
(§5) The experimental procedure was roughly the same as that described in Experiment 1-4. The only differences were the compositions administered to the mice.
(§6) Cholesterol group: 50 μL of the N-methyl-2-pyrrolidone (NMP) solution comprising cholesterol (0.25 mg/mL) (the test sample in this group) was injected intramuscularly into the right quadriceps of mice; and 50 μL of N-methyl-2-pyrrolidone solution (the vehicle control in this group) was injected intramuscularly into the left quadriceps of mice to monitor the effect induced by the injection on each mouse.
as §6, with “Squalene” for “Cholesterol”, “squalene (50 μL/mL)” for “cholesterol (0.25 mg/mL)”

[2] = system: dendritic cells (CD11c+); assay: Antigen-presenting cell recruitment in injected quadriceps muscle: dendritic cells (flow cytometry); assay type: in vivo, BALB/c mice; details: 50 μL i.m. into right quadriceps, versus vehicle-injected left quadriceps
Method: as §1, §2, §3, §4
The degree of dendritic cell (CD11c^+) recruitment in each mouse was assessed according to the following formula (VI): […]
as §5, §6
as §6, with “Squalene” for “Cholesterol”, “squalene (50 μL/mL)” for “cholesterol (0.25 mg/mL)”

[3] = system: CD4+ T cell; assay: T cell immunity: CD4+ T cells in splenocytes of immunized mice (flow cytometry); details: splenocytes on day 28; i.m. on day 0 and day 14
Method: (§7) 12 BALB/c mice were randomly assigned into 4 groups (three mice per group), which were PBS group, WT1 group, WT1+IFN-alpha-based adjuvant group, and WT1+Squalene@HACH group.
(§8) PBS group: 50 μL of the phosphate buffered saline was injected intramuscularly into both of the left and right quadriceps of mice on day 0 and day 14.
(§9) WT1 group: 50 μL of the sodium citrate solution comprising 25 μL of WT1 protein was injected intramuscularly into both of the left and right quadriceps of mice on day 0 and day 14. […]
(§10) The splenocytes were isolated by the following procedure: the spleen was gently pressed with the plunger seal of a 5-mL syringe on a 70-μm cell strainer into a 50-mL tube and washed through a cell strainer with RPMI 1640 containing 10% (v/v) FBS. […] The cell solution was counted and diluted to the desired cell concentrations.
(§11) The cell suspensions obtained from the spleen of mice in each group were respectively mixed with a medium containing titrated fluorescent conjugates of monoclonal antibodies CD8a-Alexa Fluor 647 (BD Pharmingen), and CD4-FITC (Thermo Fisher). […] Finally, the stained cells were washed with staining buffer and analyzed by BD Accuri™ C6 flow cytometer.

[4] = system: CD8+ T cell; assay: T cell immunity: CD8+ T cells in splenocytes of immunized mice (flow cytometry); details: splenocytes on day 28; i.m. on day 0 and day 14
Method: as §7, §8, §9, §10, §11

[5] = system: 4T1 cells; assay: Anti-tumor activity in 4T1 breast cancer mouse model; assay type: in vivo, BALB/c mice; parameters: key to Survival Status on Day 53: Dead means that the mouse died because of the tumor; Dead * means that the mouse died from attack by other mice
Method: On Day 0, after the injection process as described above was completed, 0.05 mL of the phosphate buffered saline (PBS) comprising 4T1 cells (2×10^6 cells/mL; 4T1 cell is abreast cancer cell line) was injected subcutaneously into the abdominal mammary fat pad of the mice in each group, and the tumor volume and survival status of mice were initially monitored on this day (Day 0). Tumor volume was calculated by ½*(4*3.14/3)*(length/2)*(width/2)*height*1000, and the observation of the tumor volume and survival status was stopped if the mouse was defined as either death or paralysis or the tumor volume of the mouse exceeding 1000 mm^3.

[6] = Condition suitable for self-assembly of Squalene@HACH particles (appearance of 28 compositions); assay type: physicochemical; details: by together forming squalene@HACH particles
Method: In this experiment, the condition suitable for self-assembly of Squalene@HACH particles was assessed and shown in a Ternary diagram.
There were 28 groups in this experiment, that is, the first to the 28th group. The preparation procedure of the compositions in each group was roughly the same as the experimental procedure of Composition comprising Squalene@HACH particles described in Experiment 1-1-4. The only differences were the weight of squalene, the weight of HACH, and the weight of sodium citrate solution (aqueous buffer solution).
Squalene@HACH particles in the compositions were detected and analyzed by dynamic light scattering, particle size analyzer, or transmission electron microscope. Moreover, please note that if the self-assembly of the Squalene@HACH particles occur in the composition, the composition would be a milk-like mixture solution (milk-like suspension).

[7] = individual mouse, i.m. on Day −14 and Day 0, 4T1 cells s.c. on Day 0

Molecule	Macrophages (CD11b+) recruitment, in words [1]	Dendritic cells (CD11c+) recruitment, in words [2]	also measured
CCCCCCCCCCCCCCCCCCN [ODA, octadecan-1-amine]	lack the ability to recruit	lack the ability to recruit	–
CC(C)CCC[C@@H](C)[C@H]1CC[C@H]2[C@@H]3CC=C4C[C@@H](O)CC[C@]4(C)[C@H]3CC[C@]12C [cholesterol]	lack the ability to recruit	lack the ability to recruit	–
CC(C)=CCC/C(C)=C/CC/C(C)=C/CC/C=C(\C)CC/C=C(\C)CCC=C(C)C [squalene]	lack the ability to recruit	lack the ability to recruit	–
WT1: WT1 protein, targeted antigen, given alone in sodium citrate solution	lacks the ability to recruit	lacks the ability to recruit	CD4+ T cell [3]: 34.1%; CD8+ T cell [4]: 27.5%; Survival Status on Day 53 [5, 7]: Dead; The day of the Tumor Growth [5, 7]: Day 18; also recorded: Day 21; also recorded: Day 25; Mice died on Day 53 ([5]; of 6 mice per group): 6 mice; Mice in which tumor developed ([5]; of 6 mice per group): 6 mice; Tumor was initially developed between ([5]; range over tumor-bearing mice of the group): 18 to 25 days
hyaluronic acid-cholesterol conjugate [HACH]	–	–	Weight units of squalene coated by 1 weight unit of HACH [6]: 80 weight units
